Reference: patent publication USRE48461E1, “Modulation of androgen receptor expression” (Ionis Pharmaceuticals, Inc., priority 2012, dated 2021)

Experiments:
Type in all cases: cell-based, human
PSA mRNA = experiment: PSA expression in LNCaP cells (complete, CSS+DHT medium); settings: for Percent inhibition of PSA expression in LNCaP cells cultured in CSS + DHT medium: CSS + DHT (1 nM) medium, 48 hrs; for Percent inhibition of PSA expression in LNCaP cells cultured in complete medium: 48 hours
Procedure: Cells were plated at 1,000 cells per well. […] ISIS 549148 was included as a negative control. […] After an incubation period of 48 hours, RNA levels of AR, PSA and TMPRSS2 were measured.
Cells were plated at 2,000 cells per well and cultured in phenol red-free RPMI supplemented with 5% charcoal stripped serum (Gibco) media for 16 hours. […] ISIS 549148 was included as a negative control. […] After an incubation period of 4 hrs, DHT was added to the medium to a final concentration of 1 nM as indicated. RNAs were collected 48 hrs later and levels of AR, PSA and TMPRSS2 were measured. In the absence of DHT, AR expression in LNCaP cells was 95%, PSA expression was 7% and TMPRSS2 expression was 24% compared to the untreated control.

LNCaP cells = experiment: LNCaP cell proliferation (complete or CSS+DHT medium); settings: 5 days; for Proliferation (% untreated control) in LNCaP cells cultured in CSS + DHT medium: CSS + 1 nM DHT medium
Procedure: After a treatment period of 5 days in complete medium or CSS+1 nM DHT medium, the proliferative capacity of the cancer cells was measured with using CellTiter 96® AQueous One Solution or CellTiter-Glo® solution Cell Proliferation kit (Promega), following the manufacturer's instructions. […] Treatment with ISIS oligonucleotides in CSS+DHT medium reduced the proliferative capacity to a greater extent than treatment with MVD-3100. The proliferative capacity of cells cultured in CSS medium without DHT is 17% of untreated control levels.

AR V7 variant mRNA = experiment: AR V7 variant RNA in VCaP cells; settings: RNAiMax, 48 hrs
Procedure: Cells were plated at 10,000 cells per well. […] ISIS 549148 was included as a negative control. After an incubation period of 48 hrs, RNA levels of full length AR, the V7 variant, PSA and TMPRSS2 were measured.
A separate set of cells was treated with MDV-3100 at 0.04 μM, 0.2 μM, 1.0 μM, or 5.0 μM. After an incubation period of 48 hrs, RNA levels of full length AR, the V7 variant, PSA and TMPRSS2 were measured. The data is presented in Tables 108 expressed as percent expression of gene levels compared to the untreated control.
Cells were plated at 15,000 cells per well and cultured in CSS media for 16 hours. […] ISIS 549148 was included as a negative control. After 4 hrs, 1 nM DHT was added. […] After an incubation period of 48 hrs, RNA levels of AR, PSA and TMPRSS2 were measured. […]

TMPRSS2 mRNA = experiment: TMPRSS2 expression in VCaP cells; settings: RNAiMax, 48 hrs
Procedure: Cells were plated at 10,000 cells per well. […] After an incubation period of 48 hrs, RNA levels of full length AR, the V7 variant, PSA and TMPRSS2 were measured.
After an incubation period of 48 hrs, RNA levels of full length AR, the V7 variant, PSA and TMPRSS2 were measured. The data is presented in Tables 108 expressed as percent expression of gene levels compared to the untreated control.
Cells were plated at 15,000 cells per well and cultured in CSS media for 16 hours. […] After 4 hrs, 1 nM DHT was added. […] After an incubation period of 48 hrs, RNA levels of AR, PSA and TMPRSS2 were measured.

VCaP cells = experiment: VCaP apoptosis (Caspase-Glo 3/7); settings: VCaP cells, complete medium, 72 hours
Procedure: After a treatment period of 72 hours in complete medium, apoptosis of the cancer cells was measured with Caspase-Glo 3/7 assay (Promega). Results are presented in Tables 117 and 118 as percent apoptosis of the cells, relative to non-treated cells.

GGCTACTACGCCGTCA (3-10-3 (S)-cEt gapmer, chemistry not fully specified) [ISIS 549148, reference compound]
Percent inhibition of PSA expression in LNCaP cells cultured in CSS + DHT medium (PSA mRNA; 0.04 μM): 0% | Percent inhibition of PSA expression in LNCaP cells cultured in CSS + DHT medium (PSA mRNA; 0.2 μM): 8% | Percent inhibition of PSA expression in LNCaP cells cultured in CSS + DHT medium (PSA mRNA; 1 μM): 0% | Percent inhibition of PSA expression in LNCaP cells cultured in CSS + DHT medium (PSA mRNA; 5.0 μM): 9% | Percent inhibition of PSA expression in LNCaP cells cultured in complete medium (PSA mRNA; 0.04 μM): 0% | Percent inhibition of PSA expression in LNCaP cells cultured in complete medium (PSA mRNA; 0.2 μM): 0% | Percent inhibition of PSA expression in LNCaP cells cultured in complete medium (PSA mRNA; 1 μM): 0% | Percent inhibition of PSA expression in LNCaP cells cultured in complete medium (PSA mRNA; 5.0 μM): 0% | Proliferation (% untreated control) in LNCaP cells cultured in CSS + DHT medium (LNCaP cells; 0.04 μM): 112 % untreated control | Proliferation (% untreated control) in LNCaP cells cultured in CSS + DHT medium (LNCaP cells; 0.2 μM): 96 % untreated control | Proliferation (% untreated control) in LNCaP cells cultured in CSS + DHT medium (LNCaP cells; 1 μM): 95 % untreated control | Proliferation (% untreated control) in LNCaP cells cultured in CSS + DHT medium (LNCaP cells; 5.0 μM): 89 % untreated control | Proliferation (% untreated control) in LNCaP cells cultured in complete medium (LNCaP cells; 0.04 μM): 101 % untreated control | Proliferation (% untreated control) in LNCaP cells cultured in complete medium (LNCaP cells; 0.2 μM): 95 % untreated control | Proliferation (% untreated control) in LNCaP cells cultured in complete medium (LNCaP cells; 1 μM): 94 % untreated control | Proliferation (% untreated control) in LNCaP cells cultured in complete medium (LNCaP cells; 5.0 μM): 110 % untreated control | Percent inhibition of AR V7 variant (AR V7 variant mRNA; CSS + DHT medium, 1.34 nM): 12% | Percent inhibition of AR V7 variant (AR V7 variant mRNA; CSS + DHT medium, 4.0 nM): 0% | Percent inhibition of AR V7 variant (AR V7 variant mRNA; CSS + DHT medium, 13.4 nM): 0% | Percent inhibition of AR V7 variant (AR V7 variant mRNA; CSS + DHT medium, 40 nM): 5% | Percent inhibition of AR V7 variant (AR V7 variant mRNA; complete medium, 1.34 nM): 0% | Percent inhibition of AR V7 variant (AR V7 variant mRNA; complete medium, 4.0 nM): 8% | Percent inhibition of AR V7 variant (AR V7 variant mRNA; complete medium, 13.4 nM): 0% | Percent inhibition of AR V7 variant (AR V7 variant mRNA; complete medium, 40 nM): 14% | Percent inhibition of TMPRSS2 expression (TMPRSS2 mRNA; CSS + DHT medium, 1.34 nM): 0% | Percent inhibition of TMPRSS2 expression (TMPRSS2 mRNA; CSS + DHT medium, 4.0 nM): 0% | Percent inhibition of TMPRSS2 expression (TMPRSS2 mRNA; CSS + DHT medium, 13.4 nM): 0% | Percent inhibition of TMPRSS2 expression (TMPRSS2 mRNA; CSS + DHT medium, 40 nM): 0% | Percent inhibition of TMPRSS2 expression (TMPRSS2 mRNA; complete medium, 1.34 nM): 0% | Percent inhibition of TMPRSS2 expression (TMPRSS2 mRNA; complete medium, 4.0 nM): 0% | Percent inhibition of TMPRSS2 expression (TMPRSS2 mRNA; complete medium, 13.4 nM): 0% | Percent inhibition of TMPRSS2 expression (TMPRSS2 mRNA; complete medium, 40 nM): 0% | Apoptosis (% untreated control) (VCaP cells; 1.34 nM): 131 % untreated control | Apoptosis (% untreated control) (VCaP cells; 4.0 nM): 108 % untreated control | Apoptosis (% untreated control) (VCaP cells; 13.4 nM): 103 % untreated control | Apoptosis (% untreated control) (VCaP cells; 40 nM): 146 % untreated control
